{"source": "the OligoGym collection", "note": "Bases are written 5' to 3'; sugars and linkages follow in the same order, as letters with counts (s phosphorothioate, o phosphodiester; PS: all linkages phosphorothioate). C may stand for cytosine or 5-methylcytosine; the collection does not tell. l = locked nucleic acid (LNA); d = 2'-deoxy (DNA)"}
{"biological_target": "HIF1A", "test": "HeLa, 100 nM transfected, 24 h, mean of 3", "details": "ASO"}
{"sequence": "TACTGCCTTCTTA (sugars l1 d1 l2 d8 l1, PS)", "caspase activation (% of PBS control)": 270}
{"sequence": "TGGCAAGCATCCTGTA (sugars ldlddddddddlldll, PS)", "caspase activation (% of PBS control)": 227}
{"sequence": "GTTACTGCCTTCTTAC (sugars l2 d2 l1 d9 l2, PS)", "caspase activation (% of PBS control)": 138}
{"sequence": "TTACTGCCTTCTT (sugars l2 d10 l1, PS)", "caspase activation (% of PBS control)": 158}
{"sequence": "GTTACTGCCTTCTTAC (sugars ldddlddddddlldll, PS)", "caspase activation (% of PBS control)": 165}
{"sequence": "GTTACTGCCTTCTTAC (sugars l1 d2 l2 d8 l3, PS)", "caspase activation (% of PBS control)": 248}
{"sequence": "GTTACTGCCTTCTTAC (sugars lddllddddddldlll, PS)", "caspase activation (% of PBS control)": 237}
{"sequence": "CAAGCATCCTGTA (sugars l2 d10 l1, PS)", "caspase activation (% of PBS control)": 142}
{"sequence": "GTTACTGCCTTCTTAC (sugars ldldlddddddldlll, PS)", "caspase activation (% of PBS control)": 231}
{"sequence": "GTTACTGCCTTCTTAC (sugars l1 d1 l2 d11 l1, PS)", "caspase activation (% of PBS control)": 156}
{"sequence": "TTACTGCCTTCTT (sugars l1 d1 l2 d8 l1, PS)", "caspase activation (% of PBS control)": 153}
{"sequence": "GTTACTGCCTTCTTAC (sugars lddldddddddlddll, PS)", "caspase activation (% of PBS control)": 129}
{"sequence": "TGGCAAGCATCCTGTA (sugars ldlllddddddllldl, PS)", "caspase activation (% of PBS control)": 490}
{"sequence": "TGGCAAGCATCCTGTA (sugars lddlldddddddlddl, PS)", "caspase activation (% of PBS control)": 461}
{"sequence": "TGGCAAGCATCCTGTA (sugars lddldddddddddldl, PS)", "caspase activation (% of PBS control)": 200}
{"sequence": "ACTGCCTTCTTAC (sugars l4 d7 l2, PS)", "caspase activation (% of PBS control)": 406}
{"sequence": "GTTACTGCCTTCTTAC (sugars lddlddddddddlldl, PS)", "caspase activation (% of PBS control)": 177}
{"sequence": "GTTACTGCCTTCTTAC (sugars l3 d1 l1 d6 l5, PS)", "caspase activation (% of PBS control)": 474}
{"sequence": "GTTACTGCCTTCTTAC (sugars lldlddddddddlldl, PS)", "caspase activation (% of PBS control)": 187}
{"sequence": "GGCAAGCATCCTG (sugars l4 d6 l1 d1 l1, PS)", "caspase activation (% of PBS control)": 607}
{"sequence": "ACTGCCTTCTTAC (sugars l3 d7 l1 d1 l1, PS)", "caspase activation (% of PBS control)": 383}
{"sequence": "GTTACTGCCTTCTTAC (sugars ldlllddddddllldl, PS)", "caspase activation (% of PBS control)": 639}
{"sequence": "TGGCAAGCATCCTGTA (sugars l5 d8 l1 d1 l1, PS)", "caspase activation (% of PBS control)": 401}
{"sequence": "GTTACTGCCTTCTTAC (sugars l2 d9 l2 d2 l1, PS)", "caspase activation (% of PBS control)": 199}
{"sequence": "TGGCAAGCATCCTGTA (sugars ldlllddddddlldll, PS)", "caspase activation (% of PBS control)": 437}
{"sequence": "TGGCAAGCATCCT (sugars l3 d7 l3, PS)", "caspase activation (% of PBS control)": 249}
{"sequence": "GTTACTGCCTTCTTAC (sugars llddlddddddddldl, PS)", "caspase activation (% of PBS control)": 222}
{"sequence": "GCAAGCATCCTGT (sugars ldldddddddldl, PS)", "caspase activation (% of PBS control)": 181}
{"sequence": "ACTGCCTTCTTAC (sugars l1 d1 l2 d6 l3, PS)", "caspase activation (% of PBS control)": 247}
{"sequence": "GTTACTGCCTTCTTAC (sugars l2 d9 l1 d3 l1, PS)", "caspase activation (% of PBS control)": 107}
{"sequence": "TGGCAAGCATCCTGTA (sugars l2 d10 l1 d1 l2, PS)", "caspase activation (% of PBS control)": 376}
{"sequence": "TACTGCCTTCTTA (sugars l3 d9 l1, PS)", "caspase activation (% of PBS control)": 286}
{"sequence": "GGCAAGCATCCTG (sugars l1 d10 l2, PS)", "caspase activation (% of PBS control)": 394}
{"sequence": "TGGCAAGCATCCTGTA (sugars ldlllddddddddldl, PS)", "caspase activation (% of PBS control)": 448}
{"sequence": "TACTGCCTTCTTA (sugars l2 d8 l3, PS)", "caspase activation (% of PBS control)": 363}
{"sequence": "TGGCAAGCATCCTGTA (sugars ldldlddddddllldl, PS)", "caspase activation (% of PBS control)": 261}
{"sequence": "TGGCAAGCATCCTGTA (sugars ldlldddddddllldl, PS)", "caspase activation (% of PBS control)": 438}
{"sequence": "TGGCAAGCATCCTGTA (sugars lldldddddddllddl, PS)", "caspase activation (% of PBS control)": 309}
{"sequence": "TGGCAAGCATCCTGTA (sugars l3 d8 l5, PS)", "caspase activation (% of PBS control)": 476}
{"sequence": "GCAAGCATCCTGT (sugars l3 d9 l1, PS)", "caspase activation (% of PBS control)": 346}
{"sequence": "GTTACTGCCTTCTTAC (sugars ldldlddddddldldl, PS)", "caspase activation (% of PBS control)": 251}
{"sequence": "GCAAGCATCCTGT (sugars l2 d8 l3, PS)", "caspase activation (% of PBS control)": 401}
{"sequence": "TGGCAAGCATCCTGTA (sugars llldlddddddllldl, PS)", "caspase activation (% of PBS control)": 413}
{"sequence": "GTTACTGCCTTCTTAC (sugars llldlddddddllddl, PS)", "caspase activation (% of PBS control)": 308}
{"sequence": "TGGCAAGCATCCTGTA (sugars llddldddddddlddl, PS)", "caspase activation (% of PBS control)": 354}
{"sequence": "TACTGCCTTCTTA (sugars l1 d10 l2, PS)", "caspase activation (% of PBS control)": 130}
{"sequence": "TTACTGCCTTCTT (sugars lldlddddddldl, PS)", "caspase activation (% of PBS control)": 222}
{"sequence": "GTTACTGCCTTCTTAC (sugars ldlddddddddldldl, PS)", "caspase activation (% of PBS control)": 145}
{"sequence": "TGGCAAGCATCCTGTA (sugars l3 d1 l1 d9 l2, PS)", "caspase activation (% of PBS control)": 382}
{"sequence": "GTTACTGCCTTCTTAC (sugars ldldldddddddlddl, PS)", "caspase activation (% of PBS control)": 220}
{"sequence": "TACTGCCTTCTTA (sugars l2 d10 l1, PS)", "caspase activation (% of PBS control)": 152}
{"sequence": "TACTGCCTTCTTA (sugars l3 d7 l3, PS)", "caspase activation (% of PBS control)": 489}
{"sequence": "TGGCAAGCATCCTGTA (sugars l1 d1 l1 d12 l1, PS)", "caspase activation (% of PBS control)": 180}
{"sequence": "GTTACTGCCTTCTTAC (sugars lddldddddddlldll, PS)", "caspase activation (% of PBS control)": 151}
{"sequence": "GTTACTGCCTTCTTAC (sugars l1 d1 l3 d7 l4, PS)", "caspase activation (% of PBS control)": 465}
{"sequence": "TGGCAAGCATCCT (sugars l4 d8 l1, PS)", "caspase activation (% of PBS control)": 471}
{"sequence": "TGGCAAGCATCCTGTA (sugars l3 d9 l1 d2 l1, PS)", "caspase activation (% of PBS control)": 210}
{"sequence": "TGGCAAGCATCCTGTA (sugars l1 d3 l1 d7 l4, PS)", "caspase activation (% of PBS control)": 235}
{"sequence": "TGGCAAGCATCCTGTA (sugars ldldddddddddldll, PS)", "caspase activation (% of PBS control)": 252}
{"sequence": "GGCAAGCATCCTG (sugars l3 d8 l2, PS)", "caspase activation (% of PBS control)": 642}
{"sequence": "GGCAAGCATCCTG (sugars l2 d1 l1 d7 l2, PS)", "caspase activation (% of PBS control)": 560}
{"sequence": "TGGCAAGCATCCTGTA (sugars ldlddddddddldlll, PS)", "caspase activation (% of PBS control)": 195}
{"sequence": "TGGCAAGCATCCT (sugars l3 d8 l2, PS)", "caspase activation (% of PBS control)": 217}
{"sequence": "TGGCAAGCATCCTGTA (sugars lddldddddddlldll, PS)", "caspase activation (% of PBS control)": 356}
{"sequence": "GGCAAGCATCCTG (sugars l1 d1 l2 d8 l1, PS)", "caspase activation (% of PBS control)": 547}
{"sequence": "TGGCAAGCATCCTGTA (sugars l2 d1 l1 d9 l3, PS)", "caspase activation (% of PBS control)": 520}
{"sequence": "TACTGCCTTCTTA (sugars lldlddddddldl, PS)", "caspase activation (% of PBS control)": 293}
{"sequence": "TGGCAAGCATCCTGTA (sugars lldlddddddddlldl, PS)", "caspase activation (% of PBS control)": 461}
{"sequence": "TGGCAAGCATCCTGTA (sugars llddlddddddldlll, PS)", "caspase activation (% of PBS control)": 425}
{"sequence": "ACTGCCTTCTTAC (sugars l2 d8 l3, PS)", "caspase activation (% of PBS control)": 209}
{"sequence": "GGCAAGCATCCTG (sugars l3 d7 l1 d1 l1, PS)", "caspase activation (% of PBS control)": 632}
{"sequence": "GGCAAGCATCCTG (sugars l2 d1 l1 d8 l1, PS)", "caspase activation (% of PBS control)": 359}
{"sequence": "GTTACTGCCTTCTTAC (sugars ldlddddddddddldl, PS)", "caspase activation (% of PBS control)": 119}
{"sequence": "TGGCAAGCATCCTGTA (sugars lldllddddddddldl, PS)", "caspase activation (% of PBS control)": 418}
{"sequence": "GTTACTGCCTTCTTAC (sugars l1 d2 l1 d9 l3, PS)", "caspase activation (% of PBS control)": 131}
{"sequence": "TTACTGCCTTCTT (sugars l4 d8 l1, PS)", "caspase activation (% of PBS control)": 202}
{"sequence": "GTTACTGCCTTCTTAC (sugars l1 d1 l2 d8 l4, PS)", "caspase activation (% of PBS control)": 200}
{"sequence": "GTTACTGCCTTCTTAC (sugars ldlldddddddllldl, PS)", "caspase activation (% of PBS control)": 365}
{"sequence": "GTTACTGCCTTCTTAC (sugars lddlddddddddlddl, PS)", "caspase activation (% of PBS control)": 112}
{"sequence": "TGGCAAGCATCCTGTA (sugars lldlldddddddldll, PS)", "caspase activation (% of PBS control)": 454}
{"sequence": "GCAAGCATCCTGT (sugars l1 d1 l1 d8 l2, PS)", "caspase activation (% of PBS control)": 188}
{"sequence": "TGGCAAGCATCCTGTA (sugars l4 d9 l1 d1 l1, PS)", "caspase activation (% of PBS control)": 425}
{"sequence": "CAAGCATCCTGTA (sugars l1 d2 l1 d6 l3, PS)", "caspase activation (% of PBS control)": 97}
{"sequence": "GGCAAGCATCCTG (sugars l1 d2 l1 d7 l2, PS)", "caspase activation (% of PBS control)": 361}
{"sequence": "ACTGCCTTCTTAC (sugars l2 d9 l2, PS)", "caspase activation (% of PBS control)": 167}
{"sequence": "TACTGCCTTCTTA (sugars l2 d1 l1 d7 l2, PS)", "caspase activation (% of PBS control)": 295}
{"sequence": "TGGCAAGCATCCTGTA (sugars l1 d1 l2 d7 l5, PS)", "caspase activation (% of PBS control)": 415}
{"sequence": "GTTACTGCCTTCTTAC (sugars llddldddddddlddl, PS)", "caspase activation (% of PBS control)": 197}
{"sequence": "GTTACTGCCTTCTTAC (sugars lddldddddddllldl, PS)", "caspase activation (% of PBS control)": 227}
{"sequence": "ACTGCCTTCTTAC (sugars l3 d9 l1, PS)", "caspase activation (% of PBS control)": 332}
{"sequence": "GTTACTGCCTTCTTAC (sugars lldldddddddddldl, PS)", "caspase activation (% of PBS control)": 138}
{"sequence": "GTTACTGCCTTCTTAC (sugars l2 d2 l1 d7 l4, PS)", "caspase activation (% of PBS control)": 324}
{"sequence": "GTTACTGCCTTCTTAC (sugars lldlldddddddlldl, PS)", "caspase activation (% of PBS control)": 363}
{"sequence": "TGGCAAGCATCCTGTA (sugars l5 d6 l3 d1 l1, PS)", "caspase activation (% of PBS control)": 366}
{"sequence": "TACTGCCTTCTTA (sugars l3 d7 l1 d1 l1, PS)", "caspase activation (% of PBS control)": 368}
{"sequence": "TGGCAAGCATCCTGTA (sugars ldldlddddddddlll, PS)", "caspase activation (% of PBS control)": 277}
{"sequence": "GTTACTGCCTTCTTAC (sugars l4 d7 l2 d1 l2, PS)", "caspase activation (% of PBS control)": 291}
{"sequence": "CAAGCATCCTGTA (sugars lddlddddddldl, PS)", "caspase activation (% of PBS control)": 100}
{"sequence": "GTTACTGCCTTCTTAC (sugars l5 d10 l1, PS)", "caspase activation (% of PBS control)": 284}
{"sequence": "GTTACTGCCTTCTTAC (sugars l1 d1 l3 d10 l1, PS)", "caspase activation (% of PBS control)": 323}
{"sequence": "ACTGCCTTCTTAC (sugars l1 d1 l1 d8 l2, PS)", "caspase activation (% of PBS control)": 191}
